Test system: interleukin 8 (IL-8)
Experiment: IL-8 ELISA on supernatant of TNF alpha-challenged primary epidermal keratinocytes pre-treated with actives
Assay type: cell-based, human
Settings: 24 h pre-treatment, then 10 ng/ml TNF alpha 24 h
Experimental: An in-vitro model has been developed to investigate the impact of an inflammatory stimulus on epidmeral keratinocytes, in which: • a. Cells are grown in 24-well (2.0 cm^2) plates. • b. The cells are pre-treated with active ingredient of interest for 24 hours then challenged with an inflammatory stimulus, 10 ng/ml tumour necrosis factor alpha (TNFa) in addition to the active ingredient, for a further 24 hours. • c. Cell culture supernatant and cell lysates were harvested at 24 hours (t24) post-TNFa treatment. • d. All cell culture supernatant was assayed for IL-8 as a measure of inflammatory response and cell culture lysate was assayed for total protein (BCA), as a measure of cytotoxicity.
Primary human epidermal keratinocyte cells were cultured and passaged in fully supplemented KGM-Gold media (Lonza) with 70 μM calcium added. Cells were routinely plated out in 24-well tissue culture dishes, at a seeding density of ˜50,000 cells/well in 1 ml medium/well for 24 hours, and incubated at 37° C. in 5% CO2.
Test solutions were prepared in KGM-Gold media without supplemented hydrocortisone and antibiotic. Media was removed from the cells and test solutions were added for 24 hours. The epidermal keratinocytes were then stimulated with an inflammatory challenge for 24 hours using 10 ng/ml TNFa in the presence of the test solutions. The treated supernatant (cell culture supernatant) was removed and stored at −20° C. prior to IL-8 analysis.
The epidermal keratinocytes were washed with 1 ml of Dulbecco's phosphated buffer solution (PBS) and 250 μl of ice cold lysis buffer (1% NP-40, 0.1% sodium deoxycholate, 0.1% sodium dodecyl sulphate, 6 mM sodium chloride and 0.05 M Tris at pH 7.6) containing protease inhibitor cocktail (Roche, Complete™ mini tablets 1 836 170) was added. The lysates were clarified by scraping the samples with a 1 ml syringe plunger and passing through an Acrowell™ filter plate (Pall) using an Acroprep™ vacuum manifold (Pall) into a 96 well microwell plate (Sterilin). The clarified lysates were stored at −20° C. until total protein estimation.
The total protein concentration of each clarified cell lysate was measured using the Pierce BCA protein assay kit so that the response to effect of the test substances could be normalised to ug protein. A set of eight standard solutions ranging from 0 to 1200 μg/ml protein was prepared from the supplied 2 mg/ml bovine serum albumin (BSA) stock solution. 10 μl of standard or cell lysate was added to duplicate wells of a flat-bottomed 96-well plate. The reagent solution was prepared according to the kit instructions from 50 parts reagent A and 1 part reagent B. 200 μl of the final reagent was added to each well. The plate was mixed, covered and incubated at 37° C. for 30 minutes and absorbance read at 562 nm. A protein standard curve was constructed and used to determine the protein concentration of each cell lysate.
The IL-8 concentration of each cell culture supernatant was assayed using the DuoSet Human IL-8 ELISA assay (R&D Systems DY208) according to the manufacturer's instructions. The IL-8 capture antibody was bound to the microtitre plate (Greiner) overnight at room temperature in phosphate buffered saline and removed by washing three times was wash buffer (0.05% Tween 20 in PBS) on an automatic plate washer. The plate was blocked with 300 μl of 1% bovine serum albumin (BSA) in phosphate buffered saline for 1 hour at room temperature and washed 3 times in wash buffer. Seven IL-8 standards were prepared in reagent diluent (0.1% BSA, 0.05% Tween 20 in PBS) at concentrations ranging from […]. 100 μl of cell culture supernatant or standard was added to duplicate wells and incubated at room temperature for 2 hours. The plate was washed 3 times with wash buffer before 100 μl of IL-8 detection antibody diluted in reagent diluent was added and incubated for 2 hours at room temperature. […]

Row | SMILES | IL-8 (pg/μg protein) (sterol alone 1 uM) | IL-8 (pg/μg protein) (sterol alone 5 uM) | IL-8 (pg/μg protein) (sterol alone 10 uM) | IL-8 (pg/μg protein) (myricetin alone 0.5 ug/ml) | IL-8 (pg/μg protein) (myricetin alone 1 ug/ml) | IL-8 (pg/μg protein) (myricetin alone 2.5 ug/ml)
1 | CC(C)[C@@H](C)/C=C/[C@@H](C)[C@H]1CC[C@H]2[C@@H]3CC=C4C[C@@H](O)CC[C@]4(C)[C@H]3CC[C@]12C [Brassicasterol] | 3.394 pg/μg protein | 4.448 pg/μg protein | 4.862 pg/μg protein | – | – | –
2 | CC(C)=CCC[C@@H](C)[C@H]1CC[C@H]2[C@@H]3CC=C4C[C@@H](O)CC[C@]4(C)[C@H]3CC[C@]12C [Desmosterol] | 4.756 pg/μg protein | 4.799 pg/μg protein | 4.711 pg/μg protein | – | – | –
3 | O=c1c(O)c(-c2cc(O)c(O)c(O)c2)oc2cc(O)cc(O)c12 [Myricetin] | – | – | – | 3.874 pg/μg protein | 2.741 pg/μg protein | 1.784 pg/μg protein
4 | CC[C@H](/C=C/[C@@H](C)[C@H]1CC[C@H]2[C@@H]3CC=C4C[C@@H](O)CC[C@]4(C)[C@H]3CC[C@]12C)C(C)C [Stigmasterol] | 4.638 pg/μg protein | 3.87 pg/μg protein | 4.964 pg/μg protein | – | – | –

From US10406091B2, “Skin anti-ageing composition” (Conopco, Inc., priority 2011, dated 2019)
